Assay results from patent US20230135152A1 (ACURASTEM INCORPORATED, priority 2020, published 2023).

Legend:
PIKFYVE [1] = biological target: T1, PIKFYVE (Homo sapiens, UniProt Q9Y2I7); experiment: PIKFYVE assay (luciferase ADP-Glo kinase assay, Promega); assay type: biochemical; conditions: Table 3
In short: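 ADP generated in the kinase reaction was detected by ADP-Glo luminescence (luciferase).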

PIKFYVE [2] = biological target: T1, PIKFYVE; experiment: Cell-based Pikfyve inhibition activity assay (EEA1 staining, mean vesicle size in BJ fibroblast cells); conditions: Table 4, 4 hours treatment, 3 μM Apilimod = 100% inhibition
In short: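 BJ fibroblasts treated 4 h at 37° C with eleven 3-fold doses (0.03-3000 nM), then fixed and stained for EEA1. Confocal images (20×, 16 tiles/well) analysed for mean vesicle size. Normalised to 0.5% DMSO (0%) and 3 μM apilimod (100%); dose-response fitted with variable slope.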

T1 sequence (Q9Y2I7 whole entry): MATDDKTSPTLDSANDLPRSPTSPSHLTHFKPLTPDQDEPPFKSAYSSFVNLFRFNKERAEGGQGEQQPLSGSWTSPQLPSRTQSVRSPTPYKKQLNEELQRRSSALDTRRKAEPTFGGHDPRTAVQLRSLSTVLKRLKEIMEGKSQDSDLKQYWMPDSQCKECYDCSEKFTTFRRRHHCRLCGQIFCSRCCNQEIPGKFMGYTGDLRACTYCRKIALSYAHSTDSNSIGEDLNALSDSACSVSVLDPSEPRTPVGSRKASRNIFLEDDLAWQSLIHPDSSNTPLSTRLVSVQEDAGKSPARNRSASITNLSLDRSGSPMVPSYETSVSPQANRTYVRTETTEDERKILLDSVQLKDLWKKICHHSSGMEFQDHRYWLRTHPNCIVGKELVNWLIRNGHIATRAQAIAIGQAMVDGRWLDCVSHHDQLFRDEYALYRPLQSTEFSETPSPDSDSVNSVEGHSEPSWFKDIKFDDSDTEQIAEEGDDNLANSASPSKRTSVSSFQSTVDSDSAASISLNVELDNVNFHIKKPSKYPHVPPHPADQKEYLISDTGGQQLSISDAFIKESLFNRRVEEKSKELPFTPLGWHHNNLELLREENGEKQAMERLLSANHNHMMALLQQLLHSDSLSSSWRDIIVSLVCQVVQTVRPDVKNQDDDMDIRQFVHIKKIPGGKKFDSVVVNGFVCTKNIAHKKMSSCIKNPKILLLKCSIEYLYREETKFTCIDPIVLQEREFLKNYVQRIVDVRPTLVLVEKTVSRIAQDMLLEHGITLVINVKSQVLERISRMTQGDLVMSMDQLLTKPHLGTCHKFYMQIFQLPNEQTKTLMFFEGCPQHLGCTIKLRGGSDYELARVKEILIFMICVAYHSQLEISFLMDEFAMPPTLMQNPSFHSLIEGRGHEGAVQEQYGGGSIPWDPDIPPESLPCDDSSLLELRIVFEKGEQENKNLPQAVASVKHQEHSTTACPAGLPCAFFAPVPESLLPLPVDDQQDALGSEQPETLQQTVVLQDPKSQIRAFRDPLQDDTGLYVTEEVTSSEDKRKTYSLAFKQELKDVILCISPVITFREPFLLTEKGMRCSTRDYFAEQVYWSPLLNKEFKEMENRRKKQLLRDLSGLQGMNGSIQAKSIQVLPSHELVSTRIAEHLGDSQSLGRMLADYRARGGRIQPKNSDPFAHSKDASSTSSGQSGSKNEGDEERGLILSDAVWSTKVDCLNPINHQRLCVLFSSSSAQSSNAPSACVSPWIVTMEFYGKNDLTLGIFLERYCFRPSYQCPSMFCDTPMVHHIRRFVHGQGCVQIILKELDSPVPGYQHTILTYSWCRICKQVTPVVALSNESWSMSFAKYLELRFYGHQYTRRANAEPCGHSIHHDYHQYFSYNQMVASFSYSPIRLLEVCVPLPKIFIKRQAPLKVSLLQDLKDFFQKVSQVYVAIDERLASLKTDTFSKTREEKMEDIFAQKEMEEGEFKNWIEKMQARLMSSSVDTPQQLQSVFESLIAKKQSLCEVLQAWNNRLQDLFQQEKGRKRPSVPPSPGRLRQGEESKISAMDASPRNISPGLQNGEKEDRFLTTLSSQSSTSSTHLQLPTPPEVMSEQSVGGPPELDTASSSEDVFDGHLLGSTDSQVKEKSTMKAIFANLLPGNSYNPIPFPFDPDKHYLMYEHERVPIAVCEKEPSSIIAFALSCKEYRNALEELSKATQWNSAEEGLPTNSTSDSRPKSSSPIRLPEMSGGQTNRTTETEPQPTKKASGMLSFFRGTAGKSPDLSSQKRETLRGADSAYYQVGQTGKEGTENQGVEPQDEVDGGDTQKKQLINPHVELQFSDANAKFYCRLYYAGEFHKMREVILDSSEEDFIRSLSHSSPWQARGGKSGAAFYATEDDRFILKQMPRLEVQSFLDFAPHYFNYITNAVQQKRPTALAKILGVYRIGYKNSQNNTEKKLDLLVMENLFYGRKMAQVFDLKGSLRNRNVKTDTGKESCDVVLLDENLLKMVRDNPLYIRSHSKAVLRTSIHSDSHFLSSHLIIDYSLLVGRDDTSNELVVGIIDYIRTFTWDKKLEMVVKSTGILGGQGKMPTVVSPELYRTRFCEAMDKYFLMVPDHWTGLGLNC

Cc1cccc(-c2cc(CN(C)C)n(-c3cc(N4CCOCC4)c4[nH]ccc4n3)n2)c1 [Compound 242, N,N-dimethyl-1-(1-(7-morpholino-1H-pyrrolo[3,2-b]pyridin-5-yl)-3-(m-tolyl)-1H-pyrazol-5-yl)]
IC50 (PIKFYVE [1]): 3 to 10 nM
EC50 (PIKFYVE [2]): 500 to 5000 nM

Cc1cc(-c2cccc3c2OCCN3)nn1-c1cc(N2CCOCC2)nc(OCCc2cnn(C)c2)n1 [Compound 245, 8-(5-methyl-1-(2-(2-(1-methyl-1H-pyrazol-4-yl)ethoxy)-6-morpholinopyrimidin-4-yl)-1H-pyrazol-3-yl)-3,4-dihydro-2H-benzo[b][1,4]oxazine]
IC50 (PIKFYVE [1]): 10 to 100 nM
EC50 (PIKFYVE [2]): > 5000 nM

COc1cccc(-c2ccn(-c3cc(N4CCOCC4)nc([C@@H](CO)OC)n3)n2)c1 [Compound 262, (S)-2-methoxy-2-(4-(3-(3-methoxyphenyl)-1H-pyrazol-1-yl)-6-morpholinopyrimidin-2-yl)ethan-1-ol]
IC50 (PIKFYVE [1]): 10 to 100 nM
EC50 (PIKFYVE [2]): 100 to 500 nM

COc1cccc(-c2ccn(-c3cc(N4CCOCC4)nc([C@H](CO)OC)n3)n2)c1 [Compound 263, (R)-2-methoxy-2-(4-(3-(3-methoxyphenyl)-1H-pyrazol-1-yl)-6-morpholinopyrimidin-2-yl)ethan-1-ol]
IC50 (PIKFYVE [1]): 10 to 100 nM
EC50 (PIKFYVE [2]): 100 to 500 nM

CO[C@H](CO)c1nc(N2CCOCC2)cc(-n2ccc(-c3cccc4[nH]ccc34)n2)n1 [Compound 268, (S)-2-(4-(3-(1H-indol-4-yl)-1H-pyrazol-1-yl)-6-morpholinopyrimidin-2-yl)-2-methoxyethan-1-ol]
IC50 (PIKFYVE [1]): 10 to 100 nM
EC50 (PIKFYVE [2]): 500 to 5000 nM

CO[C@@H](CO)c1nc(N2CCOCC2)cc(-n2ccc(-c3cccc4[nH]ccc34)n2)n1 [Compound 269, (R)-2-(4-(3-(1H-indol-4-yl)-1H-pyrazol-1-yl)-6-morpholinopyrimidin-2-yl)-2-methoxyethan-1-ol]
IC50 (PIKFYVE [1]): 10 to 100 nM
EC50 (PIKFYVE [2]): 500 to 5000 nM

CCc1cccc(-c2ccn(-c3cc(N4CCOCC4)nc([C@@H](CO)OC)n3)n2)c1 [Compound 272, (S)-2-(4-(3-(3-ethylphenyl)-1H-pyrazol-1-yl)-6-morpholinopyrimidin-2-yl)-2-methoxyethan-1-ol]
IC50 (PIKFYVE [1]): 3 to 10 nM
EC50 (PIKFYVE [2]): 100 to 500 nM

CCc1cccc(-c2ccn(-c3cc(N4CCOCC4)nc([C@H](CO)OC)n3)n2)c1 [Compound 273, (R)-2-(4-(3-(3-ethylphenyl)-1H-pyrazol-1-yl)-6-morpholinopyrimidin-2-yl)-2-methoxyethan-1-ol]
IC50 (PIKFYVE [1]): 3 to 10 nM
EC50 (PIKFYVE [2]): 100 to 500 nM

CO[C@H](CO)c1nc(N2CCOCC2)cc(-n2ccc(-c3cccc4ncsc34)n2)n1 [Compound 274, (S)-2-(4-(3-(benzo[d]thiazol-7-yl)-1H-pyrazol-1-yl)-6-morpholinopyrimidin-2-yl)-2-methoxyethan-1-ol]
IC50 (PIKFYVE [1]): 100 to 5000 nM
EC50 (PIKFYVE [2]): > 5000 nM

CO[C@@H](CO)c1nc(N2CCOCC2)cc(-n2ccc(-c3cccc4ncsc34)n2)n1 [Compound 275, (R)-2-(4-(3-(benzo[d]thiazol-7-yl)-1H-pyrazol-1-yl)-6-morpholinopyrimidin-2-yl)-2-methoxyethan-1-ol]
IC50 (PIKFYVE [1]): 100 to 5000 nM
EC50 (PIKFYVE [2]): > 5000 nM

COCc1cccc(-c2ccn(-c3cc(N4CCOCC4)nc([C@@H](CO)OC)n3)n2)c1 [Compound 276, (S)-2-methoxy-2-(4-(3-(3-(methoxymethyl)phenyl)-1H-pyrazol-1-yl)-6-morpholinopyrimidin-2-yl)ethan-1-ol]
IC50 (PIKFYVE [1]): 3 to 10 nM
EC50 (PIKFYVE [2]): 100 to 500 nM

COCc1cccc(-c2ccn(-c3cc(N4CCOCC4)nc([C@H](CO)OC)n3)n2)c1 [Compound 277, (R)-2-methoxy-2-(4-(3-(3-(methoxymethyl)phenyl)-1H-pyrazol-1-yl)-6-morpholinopyrimidin-2-yl)ethan-1-ol]
IC50 (PIKFYVE [1]): 3 to 10 nM
EC50 (PIKFYVE [2]): 100 to 500 nM

CO[C@H](CO)c1nc(N2CCOCC2)cc(-n2nc(-c3csc4ccccc34)cc2C)n1 [Compound 278, (S)-2-(4-(3-(benzo[b]thiophen-3-yl)-5-methyl-1H-pyrazol-1-yl)-6-morpholinopyrimidin-2-yl)-2-methoxyethan-1-ol]
IC50 (PIKFYVE [1]): < 3 nM
EC50 (PIKFYVE [2]): 500 to 5000 nM

CO[C@@H](CO)c1nc(N2CCOCC2)cc(-n2nc(-c3csc4ccccc34)cc2C)n1 [Compound 279, (R)-2-(4-(3-(benzo[b]thiophen-3-yl)-5-methyl-1H-pyrazol-1-yl)-6-morpholinopyrimidin-2-yl)-2-methoxyethan-1-ol]
IC50 (PIKFYVE [1]): 3 to 10 nM
EC50 (PIKFYVE [2]): 500 to 5000 nM

CO[C@H](CO)c1nc(N2CCOCC2)cc(-n2ccc(-c3c[nH]c4ncccc34)n2)n1 [Compound 292, (S)-2-(4-(3-(1H-pyrrolo[2,3-b]pyridin-3-yl)-1H-pyrazol-1-yl)-6-morpholinopyrimidin-2-yl)-2-methoxyethan-1-ol]
IC50 (PIKFYVE [1]): 10 to 100 nM
EC50 (PIKFYVE [2]): 20 to 100 nM

CO[C@@H](CO)c1nc(N2CCOCC2)cc(-n2ccc(-c3c[nH]c4ncccc34)n2)n1 [Compound 293, (R)-2-(4-(3-(1H-pyrrolo[2,3-b]pyridin-3-yl)-1H-pyrazol-1-yl)-6-morpholinopyrimidin-2-yl)-2-methoxyethan-1-ol]
IC50 (PIKFYVE [1]): 10 to 100 nM
EC50 (PIKFYVE [2]): 100 to 500 nM

Cc1cccc(-c2ccn(-c3cc(N4CCOCC4)nc(COCc4cn(C)cn4)n3)n2)c1 [Compound 297, 4-(2-(((1-methyl-1H-imidazol-4-yl)methoxy)methyl)-6-(3-(m-tolyl)-1H-pyrazol-1-yl)pyrimidin-4-yl)morpholine]
IC50 (PIKFYVE [1]): 3 to 10 nM
EC50 (PIKFYVE [2]): 100 to 500 nM

Cn1cc(COCc2nc(N3CCOCC3)cc(-n3ccc(-c4ccccc4)n3)n2)cn1 [Compound 298, 4-(2-(((1-methyl-1H-pyrazol-4-yl)methoxy)methyl)-6-(3-phenyl-1H-pyrazol-1-yl)pyrimidin-4-yl)morpholine]
IC50 (PIKFYVE [1]): 3 to 10 nM
EC50 (PIKFYVE [2]): 500 to 5000 nM

Cc1cccc(-c2ccn(-c3cc(N4CCOCC4)nc(COCc4cnn(C)c4)n3)n2)c1 [Compound 299, 4-(2-(((1-methyl-1H-pyrazol-4-yl)methoxy)methyl)-6-(3-(m-tolyl)-1H-pyrazol-1-yl)pyrimidin-4-yl)morpholine]
IC50 (PIKFYVE [1]): < 3 nM
EC50 (PIKFYVE [2]): 20 to 100 nM

Cc1cccc(-c2ccn(-c3cc(N4CCOCC4)nc(COCc4cn[nH]c4)n3)n2)c1 [Compound 300, 4-(2-(((1H-pyrazol-4-yl)methoxy)methyl)-6-(3-(m-tolyl)-1H-pyrazol-1-yl)pyrimidin-4-yl)morpholine]
IC50 (PIKFYVE [1]): < 3 nM
EC50 (PIKFYVE [2]): 20 to 100 nM

Cc1cc(Oc2ccn(-c3cc(N4CCOCC4)nc(OCCc4cnn(C)c4)n3)n2)ccn1 [Compound 302, 4-(2-(2-(1-methyl-1H-pyrazol-4-yl)ethoxy)-6-(3-((2-methylpyridin-4-yl)ox)-1H-pyrazol-1-yl)pyrimidin-4-yl)morpholine]
IC50 (PIKFYVE [1]): 10 to 100 nM
EC50 (PIKFYVE [2]): > 5000 nM

Cn1cc(CCOc2nc(N3CCOCC3)cc(-n3ccc(Oc4ccncc4)n3)n2)cn1 [Compound 303, 4-(2-(2-(1-methyl-1H-pyrazol-4-yl)ethoxy)-6-(3-(pyridin-4-yloxy)-1H-pyrazol-1-yl)pyrimidin-4-yl)morpholine]
IC50 (PIKFYVE [1]): 100 to 5000 nM
EC50 (PIKFYVE [2]): > 5000 nM

Cc1cccc(-c2ccn(-c3cc(N4CCOCC4)nc(/C=C/c4cnn(C)c4)n3)n2)c1 [Compound 304, (E)-4-(2-(2-(1-methyl-1H-pyrazol-4-yl)vinyl)-6-(3-(m-tolyl)-1H-pyrazol-1-yl)pyrimidin-4-yl)morpholine]
IC50 (PIKFYVE [1]): 3 to 10 nM
EC50 (PIKFYVE [2]): 20 to 100 nM

Cc1cccc(-c2ccn(-c3cc(N4CCOCC4)nc(CCc4cccnn4)n3)n2)c1 [Compound 317, 4-(2-(2-(pyridazin-3-yl)ethyl)-6-(3-(m-tolyl)-1H-pyrazol-1-yl)pyrimidin-4-yl)morpholine]
IC50 (PIKFYVE [1]): 3 to 10 nM
EC50 (PIKFYVE [2]): 100 to 500 nM

Cc1cccc(-c2ccn(-c3cc(N4CCOCC4)nc(C4CCOCC4)n3)n2)c1 [Compound 326, 4-(2-(tetrahydro-2H-pyran-4-yl)-6-(3-(m-tolyl)-1H-pyrazol-1-yl)pyrimidin-4-yl)morpholine]
IC50 (PIKFYVE [1]): 10 to 100 nM
EC50 (PIKFYVE [2]): 500 to 5000 nM

Cc1cccc(-c2ccn(-c3cc(N4CCOCC4)nc([C@H]4C[C@@H](O)CO4)n3)n2)c1 [Compound 331, (3R,5R)-5-(4-morpholino-6-(3-(m-tolyl)-1H-pyrazol-1-yl)pyrimidin-2-yl)tetrahydrofuran-3-ol]
IC50 (PIKFYVE [1]): 3 to 10 nM
EC50 (PIKFYVE [2]): 100 to 500 nM

Cc1cccc(-c2ccn(-c3cc(N4CCOCC4)nc([C@H]4C[C@H](O)CO4)n3)n2)c1 [Compound 332, (3S,5R)-5-(4-morpholino-6-(3-(m-tolyl)-1H-pyrazol-1-yl)pyrimidin-2-yl)tetrahydrofuran-3-ol]
IC50 (PIKFYVE [1]): 3 to 10 nM
EC50 (PIKFYVE [2]): 500 to 5000 nM

Cc1cccc(-c2ccn(-c3cc(N4CCOCC4)c4[nH]c(C)cc4n3)n2)c1 [Compound 334, 4-(2-methyl-5-(3-(m-tolyl)-1H-pyrazol-1-yl)-1H-pyrrolo[3,2-b]pyridin-7-yl)morpholine]
IC50 (PIKFYVE [1]): 10 to 100 nM
EC50 (PIKFYVE [2]): 500 to 5000 nM

Cc1cccc(-c2ccn(-c3cc(N4CCOCC4)c4[nH]cc(C)c4n3)n2)c1 [Compound 335, 4-(3-methyl-5-(3-(m-tolyl)-1H-pyrazol-1-yl)-1H-pyrrolo[3,2-b]pyridin-7-yl)morpholine]
IC50 (PIKFYVE [1]): 10 to 100 nM
EC50 (PIKFYVE [2]): 500 to 5000 nM

Cc1cccc(-c2ccn(-c3cc(N4CCOCC4)n4nc(C)cc4n3)n2)c1 [Compound 336, 4-(2-methyl-5-(3-(m-tolyl)-1H-pyrazol-1-yl)pyrazolo[1,5-a]pyrimidin-7-yl)morpholine]
IC50 (PIKFYVE [1]): 10 to 100 nM
EC50 (PIKFYVE [2]): 500 to 5000 nM

Cc1cccc(-c2ccn(-c3cc(N4CCOCC4)n4ncc(C)c4n3)n2)c1 [Compound 337, 4-(3-methyl-5-(3-(m-tolyl)-1H-pyrazol-1-yl)pyrazolo[1,5-a]pyrimidin-7-yl)morpholine]
IC50 (PIKFYVE [1]): 10 to 100 nM
EC50 (PIKFYVE [2]): 500 to 5000 nM

Cc1cccc(-c2ccn(-c3cc(N4CCOCC4)nc(CCc4ccnn4C)n3)n2)c1 [Compound 338, 4-(2-(2-(1-methyl-1H-pyrazol-5-yl)ethyl)-6-(3-(m-tolyl)-1H-pyrazol-1-yl)pyrimidin-4-yl)morpholine]
IC50 (PIKFYVE [1]): 3 to 10 nM
EC50 (PIKFYVE [2]): > 5000 nM
